# Values quoted from earlier work in publication PMC10010643 (Cancer Chemotherapy and Pharmacology, 2023).
# Experiments:
# [1] = design: method as in PMID 36154172; details: cited from earlier work
# galectin-3 [2] = details: cited from earlier work
# galectin-3 [3] = system: galectin-3; design: method as in PMID 33214209; details: inhaled; cited from earlier work
structure (smiles),measurement,setting,value
OC[C@H]1O[C@@H](S[C@@H]2O[C@H](CO)[C@H](O)[C@H](n3cc(-c4cccc(F)c4)nn3)[C@H]2O)[C@H](O)[C@@H](n2cc(-c3cccc(F)c3)nn2)[C@H]1O [GB0139],Elimination if administered systemically,[1],prompt elimination
same,Intestinal absorption,[1],poor intestinal absorption
same,Binding affinity for galectin-3,galectin-3 [2],high binding affinity
same,Galectin-3 expression,galectin-3 [3],suppressed galectin-3 expression
same,Plasma biomarkers associated with IPF disease progression,galectin-3 [3],decreased plasma biomarkers associated with IPF disease progression
